This assay addresses T. brucei PKAR-PKAC1 holoenzyme (Trypanosoma brucei, UniProt Q9GU80). Briefly: biochemical. In kind it is biochemical.

For the compound `N#Cc1cn([C@@H]2O[C@H](CO)[C@@H](O)[C@H]2O)c2ncnc(O)c12` [7-CN-7-C-Ino, 7-Cyano-7-deazainosine], the midpoint of the response, the EC50, lay at 6.5 ± 4.6 nM.
